Reference: patent US8471024B2, “Tetrahydrofuropyridones” (priority 2008, dated 2013)
pIC50: −log10 of the molar value.

Biological target: T1, PHD2 (Homo sapiens, UniProt Q9GZT9)
T1 construct: FLAG-tagged full length PHD2expressed in and purified from baculovirus-infected Sf9 cells; FLAG; made in house; host or cells: baculovirus-infected Sf9 cells
Experiment: Assay for HIF-PHD2 Catalytic Activity (time resolved fluorescence, VHL complex detection)
Format: biochemical
Settings: FLAG-tagged full length PHD2; 0.2 μM 2-oxoglutarate, 0.5 μM HIF-1α peptide; read-out: PHD2 Binding Activity IC50
Description: Assay for HIF-PHD2Catalytic Activity To each well of a 96-well plate was added 1 μL of test compound in DMSO and 20 μl of assay buffer (50 mM Tris pH 7.4/0.01% Tween-20/0.1 mg/ml bovine serum albumin/10 μM ferrous sulfate/1mM sodium ascorbate/20 μg/ml catalase) containing 0.15 μg/ml FLAG-tagged full length PHD2expressed in and purified from baculovirus-infected Sf9 cells. After a 30 min preincubation at room temperature, the enzymatic reactions were initiated by the addition of 4 μL of substrates (final concentrations of 0.2 μM 2-oxoglutarate and 0.5 μM HIF-1α peptide biotinyl-DLDLEMLAPYJPMDDDFQL).

T1 sequence (Q9GZT9 whole entry): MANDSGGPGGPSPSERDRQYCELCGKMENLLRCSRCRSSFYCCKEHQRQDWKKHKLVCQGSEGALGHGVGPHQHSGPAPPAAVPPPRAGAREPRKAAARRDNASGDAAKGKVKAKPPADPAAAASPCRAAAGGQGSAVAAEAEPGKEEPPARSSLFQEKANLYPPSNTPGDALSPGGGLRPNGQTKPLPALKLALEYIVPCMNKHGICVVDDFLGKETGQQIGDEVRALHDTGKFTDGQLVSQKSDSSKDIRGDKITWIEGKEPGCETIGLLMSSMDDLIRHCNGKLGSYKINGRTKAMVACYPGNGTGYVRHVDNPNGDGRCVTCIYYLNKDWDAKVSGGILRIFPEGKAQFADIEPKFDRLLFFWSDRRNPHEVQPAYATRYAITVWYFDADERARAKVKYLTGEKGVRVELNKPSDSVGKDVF

| SMILES | pIC50 |
| --- | --- |
| O=C(O)CNC(=O)c1c(O)c2c(n(Cc3ccc(Br)cc3F)c1=O)COC2 [Example 15, N-{[1-(4-bromo-2-fluorobenzyl)-4-hydroxy-2-oxo-1,2,5,7-tetrahydrofuro[3,4-b]pyridin-3-yl]carbonyl}glycine] | > 8.00 |
| O=C(O)CNC(=O)c1c(O)c2c(n(CC3Cc4ccccc4C3)c1=O)COC2 [Example 11, N-{[1-(2,3-dihydro-1H-inden-2-ylmethyl)-4-hydroxy-2-oxo-1,2,5,7-tetrahydrofuro[3,4-b]pyridin-3-yl]carbonyl}glycine] | > 8.00 |
| CC1(C)OCc2c(O)c(C(=O)NCC(=O)O)c(=O)n(Cc3nc4ccccc4s3)c21 [Example 25] | 7.00 to 8.00 |
| O=C(O)CNC(=O)c1c(O)c2c(n(Cc3cnc(-c4ccccc4Cl)cn3)c1=O)COC2 [Example 53, N-[(1-{[5-(2-chlorophenyl)pyrazin-2-yl]methyl}-4-hydroxy-2-oxo-1,2,5,7-tetrahydrofuro[3,4-b]pyridin-3-yl)carbonyl]glycine] | > 8.00 |
| O=C(O)CNC(=O)c1c(O)c2c(n(Cc3ccc(OCC(F)(F)F)nc3)c1=O)COC2 [Example 19, N-[(4-hydroxy-2-oxo-1-{[6-(2,2,2-trifluoroethoxy)pyridin-3-yl]methyl}-1,2,5,7-tetrahydrofuro[3,4-b]pyridin-3-yl)carbonyl]glycine] | > 8.00 |
| CC1OCc2c1c(O)c(C(=O)NCC(=O)O)c(=O)n2Cc1ccc(C(F)(F)F)nc1 (centres unmarked) [Example 14, N-[(4-hydroxy-5-methyl-2-oxo-1-{[6-(trifluoromethyl)pyridine-3-yl]methyl}-1,2,5,7-tetrahydrofuro[3,4-b]pyridin-3-yl}carbonyl)glycine] | > 8.00 |
| O=C(O)CNC(=O)c1c(O)c2c(n(Cc3ccc(-c4ccc(F)cc4Cl)cc3F)c1=O)COC2 [Example 39] | > 8.00 |
| O=C(O)CNC(=O)c1c(O)c2c(n(Cc3ccc(-c4ccc(F)cc4)cc3)c1=O)COC2 [Example 31] | > 8.00 |
| Cc1nn(-c2ccccc2)nc1Cn1c2c(c(O)c(C(=O)NCC(=O)O)c1=O)COC2 [Example 21, N-({4-hydroxy-1-[(5-methyl-2-phenyl-2H-1,2,3-triazol-4-yl)methyl]-2-oxo-1,2,5,7-tetrahydrofuro[3,4-b]pyridin-3-yl}carbonyl)glycine] | > 8.00 |
| O=C(O)CNC(=O)c1c(O)c2c(n(Cc3nc(-c4ccccc4Cl)cs3)c1=O)COC2 [Example 27, N-[(1-{[4-(2-chlorophenyl)-1,3-thiazol-2-yl]methyl)-4-hydroxy-2-oxo-1,2,5,7-tetrahydrofuro[3,4-b]pyridin-3-yl)carbonyl]glycine] | > 8.00 |
| O=C(O)CNC(=O)c1c(O)c2c(n(Cc3nc4ccccc4s3)c1=O)COC2 [Example 1, N-{[1-(1,3-benzothiazol-2-ylmethyl)-4-hydroxy-2-oxo-1,2,5,7-tetrahydrofuro[3,4-b]-pyridin-3-yl]carbonyl}glycine] | > 8.00 |
| O=C(O)CNC(=O)c1c(O)c2c(n(Cc3ccc(-c4cc(F)ccc4F)nc3)c1=O)COC2 [Example 45, N-[(1-{[6-(2,5-difluorophenyl)pyridin-3-yl]methyl}-4-hydroxy-2-oxo-1,2,5,7-tetrahydrofuro[3,4-b]pyridin-3-yl)carbonyl]glycine] | > 8.00 |
| O=C(O)CNC(=O)c1c(O)c2c(n(Cc3noc(-c4ccccc4)n3)c1=O)COC2 [Example 5, N-({4-hydroxy-2-oxo-1-[(5-phenyl-1,2,4-oxadiazol-3-yl)methyl]-1,2,5,7-tetrahydrofuro[3,4-b]pyridin-3-yl}carbonyl)glycine] | > 8.00 |
| O=C(O)CNC(=O)c1c(O)c2c(n(Cc3cnc(-c4ccccc4OC(F)(F)F)cn3)c1=O)COC2 [Example 54, N-[(1-{[5-(2-trifluoromethoxyphenyl)pyrazin-2-yl]methyl}-4-hydroxy-2-oxo-1,2,5,7-tetrahydrofuro[3,4-b]pyridin-3-yl)carbonyl]glycine] | > 8.00 |
| O=C(O)CNC(=O)c1c(O)c2c(n(Cc3ccc(-c4nccs4)cc3)c1=O)COC2 [Example 23, N-({4-hydroxy-2-oxo-1-[4-(1,3-thiazol-2-yl)benzyl]-1,2,5,7-tetrahydrofuro[3,4-b]pyridin-3-yl}carbonyl)glycine] | > 8.00 |
| O=C(O)CNC(=O)c1c(O)c2c(n(Cc3ccc(OC(F)F)cc3)c1=O)COC2 [Example 17, N-{[1-(4-difluoromethoxybenzyl)-4-hydroxy-2-oxo-1,2,5,7-tetrahydrofuro[3,4-b]pyridin-3-yl]carbonyl}glycine] | > 8.00 |
| O=C(O)CNC(=O)c1c(O)c2c(n(Cc3ccc(-c4ccccc4F)nc3)c1=O)COC2 [Example 49, N-[(1-{[6-(2-fluorophenyl)pyridin-3-yl]methyl}-4-hydroxy-2-oxo-1,2,5,7-tetrahydrofuro[3,4-b]pyridin-3-yl)carbonyl]glycine] | > 8.00 |
| O=C(O)CNC(=O)c1c(O)c2c(n(Cc3ccc(Cl)nc3)c1=O)COC2 [Example 9, N-({1-[(6-chloropyridin-3-yl)methyl]-4-hydroxy-2-oxo-1,2,5,7-tetrahydrofuro[3,4-b]pyridin-3-yl}carbonyl)glycine] | > 8.00 |
| O=C(O)CNC(=O)c1c(O)c2c(n(Cc3ccc(-c4cc(Cl)cc(Cl)c4)nc3)c1=O)COC2 [Example 42, N-[(1-{[6-(3,5-dichlorophenyl)pyridin-3-yl]methyl}-4-hydroxy-2-oxo-1,2,5,7-tetrahydrofuro[3,4-b]pyridin-3-yl)carbonyl]glycine] | > 8.00 |
| Cn1cc(-c2ccc(Cn3c4c(c(O)c(C(=O)NCC(=O)O)c3=O)COC4)cn2)cn1 [Example 43, N-[(4-hydroxy-1-{[6-(1-methyl-1H-pyrazol-4-yl)pyridin-3-yl)methyl}-2-oxo-1,2,5,7-tetrahydrofuro[3,4-b]pyridin-3-yl)carbonyl]glycine] | > 8.00 |
| O=C(O)CNC(=O)c1c(O)c2c(n(Cc3ccc(-c4ccc(F)cc4Cl)cc3)c1=O)COC2 [Example 37] | > 8.00 |
| O=C(O)CNC(=O)c1c(O)c2c(n(Cc3cnc(-c4ccc(F)c(F)c4)cn3)c1=O)COC2 [Example 52, N-[(1-{[5-(3,4-difluorophenyl)pyrazin-2-yl]methyl}-4-hydroxy-2-oxo-1,2,5,7-tetrahydrofuro[3,4-b]pyridin-3-yl)carbonyl]glycine] | > 8.00 |
| O=C(O)CNC(=O)c1c(O)c2c(n(Cc3ccc(-c4ccccc4)nc3)c1=O)COC2 [Example 41, N-({4-hydroxy-2-oxo-1-[(6-phenylpyridin-3-yl)methyl]-1,2,5,7-tetrahydrofuro[3,4-b]pyridin-3-yl}carbonyl)glycine] | > 8.00 |
| O=C(O)CNC(=O)c1c(O)c2c(n(Cc3cnc(-c4ccc(F)cc4F)cn3)c1=O)COC2 [Example 51, N-[(1-{[5-(2,4-difluorophenyl)pyrazin-2-yl]methyl}-4-hydroxy-2-oxo-1,2,5,7-tetrahydrofuro[3,4-b]pyridin-3-yl)carbonyl]glycine] | > 8.00 |
| O=C(O)CNC(=O)c1c(O)c2c(n(Cc3ccc(Br)cc3)c1=O)COC2 [Example 10, N-{[1-(4-bromobenzyl)-4-hydroxy-2-oxo-1,2,5,7-tetrahydrofuro[3,4-b]pyridin-3-yl]carbonyl)glycine] | > 8.00 |
| O=C(O)CNC(=O)c1c(O)c2c(n(Cc3cccnn3)c1=O)COC2 [Example 4, N-{[4-hydroxy-2-oxo-1-(pyridazin-3-ylmethyl)-1,2,5,7-tetrahydrofuro[3,4-b]pyridin-3-yl]carbonyl}glycine] | > 8.00 |
